Where two headings read alike, the source gives them in different places.
Legend:
MST1 [1] = biological target: T1, MST1 (Homo sapiens (Human), UniProt Q13043); assay: In vitro enzyme activity test (ADP-GLO); type: biochemical; conditions: ATP 50 μM, 37° C. 1 hour, read-out: MST1 (IC50/μM)
Description: The IC50 values of the compounds against MST1 were determined. The protein kinase MST1 and the substrate were obtained from commercial sources.
5.4 μL of protein kinase MST1 diluted to a certain concentration (final concentration was 2.5 ng/μL) and 1 μL of serially diluted drug compounds and control compound XMU-MP-1 were taken to react at room temperature for 10 minutes (final drug concentrations were 10 μM, 1 μM, 0.3 μM, 0.1 μM, 0.03 μM, 0.01 μM, 0.003 μM, 0.001 μM, respectively).
6 μL of a mixture of ATP (with a final reaction concentration of 50 μM) and substrate was added to the above reaction tube to react at 37° C. for 1 hour. The reaction buffer was 40 mM Tris, 7.5; 20 mM MgCl2; 0.1 mg/ml BSA; 50 μM DTT.
5 μL of the kinase mixture after the reaction was taken to a 384-well plate, and 5 μL of ADP-GLO™ reagent was added thereto. After reaction at room temperature for 40 minutes, the kinase reaction was terminated and the remaining ATP was consumed.
10 μL of a kinase detection reagent was added to convert ADP into ATP, and a coupled luciferase/luciferin reaction was utilized to detect the newly synthesized ATP. Envision was used to read and plot the data, and calculate the IC50 value.

C57BL/6 mice = assay: Liver injury repair experiment (paracetamol/APAP-induced); type: in vivo
Description: C57BL/6 mice, male, 20 g, were maintained in a SPF animal room. Thirty C57BL/6 mice were fasted for 12 hours overnight, and 5 mice of which were intraperitoneally injected with normal saline to act as a normal control group, and the other 25 mice were intraperitoneally injected with paracetamol (APAP) (purchased from Sigma)-600 mg/kg, and randomly divided into 5 groups after 30 minutes, wherein the 5 groups include vehicle (5% DMSO in water), compound 1-1-po, compound 1-2-po, compound 1-4-po, XMU-MP-1-ip groups. Mice in the vehicle group were administered intragastrically with vehicle control; mice in the compound 1-1-po, compound 1-2-po, compound 1-4-po groups were administered intragastrically with compound 1 at 1 mg/kg, 2 mg/kg or 4 mg/kg, respectively; mice in the XMU-MP-1-ip group were intraperitoneally administered with the control compound XMU-MP-1 at 1 mg/kg. After the administration, the body weight of the mice was monitored and the survival status of the mice was observed.

MIN-6 cells = assay: Proliferation of MIN-6 cells (cell counter); conditions: 1 μM, 72 hours
Description: The effects of compound 1 and the control compound XMU-MP-1 on MST1 signaling pathway such as autophosphorylation of MST1, apoptosis signaling pathway such as cleavage of four proteins Caspase9/7/3 and PARP, expression of BIM, BAX, BCL-2, BCL-XL protein, proliferation-related signaling pathway such as autophosphorylation of AKT and ERK, and phosphorylation and protein expression of insulin secretion transcription factor PDX1 were tested in mouse pancreatic β-cells, MIN-6 cells (Hunan Fenghuishengwu technology Co., Ltd.). Compound 1 of different concentrations (0 μM, 0.3 μM, 1 μM, 3 μM in DMSO) and XMU-MP-1 of 1 μM (in DMSO) were used to treat the cell line for 72 hours in a medium with a glucose content of 33.3 mM, respectively. One of the control DMSO group involved 5.5 mM glucose and the other one involved 33.3 mM glucose. The samples were collected.
JIMBIO cell counter (EXCEL HERO TECHNOLOGY LIMITED) was used to detect the effect on the proliferation of MIN-6 cells after 72 hours of the administration.

MST1 [2] = biological target: T1, MST1; conditions: literature; read-out: IC50 against MST1; cited from earlier work
MAP3K2 = MAP3K2 (Homo sapiens (Human), UniProt Q9Y2U5); conditions: literature; cited from earlier work
Chain of MAP3K2 (Q9Y2U5 whole entry, species assumed): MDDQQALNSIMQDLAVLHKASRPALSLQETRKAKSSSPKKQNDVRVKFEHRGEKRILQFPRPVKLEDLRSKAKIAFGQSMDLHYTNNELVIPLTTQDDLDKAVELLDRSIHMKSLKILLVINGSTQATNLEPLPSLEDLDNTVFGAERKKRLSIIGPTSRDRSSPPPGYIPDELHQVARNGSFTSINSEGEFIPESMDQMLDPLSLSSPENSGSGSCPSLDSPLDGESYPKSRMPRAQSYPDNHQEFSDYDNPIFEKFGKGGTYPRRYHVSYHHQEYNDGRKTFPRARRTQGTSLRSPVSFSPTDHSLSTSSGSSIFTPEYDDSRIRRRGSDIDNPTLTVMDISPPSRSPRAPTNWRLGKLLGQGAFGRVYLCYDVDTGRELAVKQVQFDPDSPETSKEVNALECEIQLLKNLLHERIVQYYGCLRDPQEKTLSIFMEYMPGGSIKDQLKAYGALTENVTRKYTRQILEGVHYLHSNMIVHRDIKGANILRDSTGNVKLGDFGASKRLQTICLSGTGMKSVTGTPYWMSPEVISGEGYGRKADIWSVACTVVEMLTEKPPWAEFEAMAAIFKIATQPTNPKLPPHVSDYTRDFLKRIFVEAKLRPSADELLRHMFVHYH

TAOK = conditions: literature; cited from earlier work
PIK3CG = PIK3CG (Homo sapiens (Human), UniProt P48736); conditions: literature; cited from earlier work
Chain of PIK3CG (P48736 whole entry, species assumed): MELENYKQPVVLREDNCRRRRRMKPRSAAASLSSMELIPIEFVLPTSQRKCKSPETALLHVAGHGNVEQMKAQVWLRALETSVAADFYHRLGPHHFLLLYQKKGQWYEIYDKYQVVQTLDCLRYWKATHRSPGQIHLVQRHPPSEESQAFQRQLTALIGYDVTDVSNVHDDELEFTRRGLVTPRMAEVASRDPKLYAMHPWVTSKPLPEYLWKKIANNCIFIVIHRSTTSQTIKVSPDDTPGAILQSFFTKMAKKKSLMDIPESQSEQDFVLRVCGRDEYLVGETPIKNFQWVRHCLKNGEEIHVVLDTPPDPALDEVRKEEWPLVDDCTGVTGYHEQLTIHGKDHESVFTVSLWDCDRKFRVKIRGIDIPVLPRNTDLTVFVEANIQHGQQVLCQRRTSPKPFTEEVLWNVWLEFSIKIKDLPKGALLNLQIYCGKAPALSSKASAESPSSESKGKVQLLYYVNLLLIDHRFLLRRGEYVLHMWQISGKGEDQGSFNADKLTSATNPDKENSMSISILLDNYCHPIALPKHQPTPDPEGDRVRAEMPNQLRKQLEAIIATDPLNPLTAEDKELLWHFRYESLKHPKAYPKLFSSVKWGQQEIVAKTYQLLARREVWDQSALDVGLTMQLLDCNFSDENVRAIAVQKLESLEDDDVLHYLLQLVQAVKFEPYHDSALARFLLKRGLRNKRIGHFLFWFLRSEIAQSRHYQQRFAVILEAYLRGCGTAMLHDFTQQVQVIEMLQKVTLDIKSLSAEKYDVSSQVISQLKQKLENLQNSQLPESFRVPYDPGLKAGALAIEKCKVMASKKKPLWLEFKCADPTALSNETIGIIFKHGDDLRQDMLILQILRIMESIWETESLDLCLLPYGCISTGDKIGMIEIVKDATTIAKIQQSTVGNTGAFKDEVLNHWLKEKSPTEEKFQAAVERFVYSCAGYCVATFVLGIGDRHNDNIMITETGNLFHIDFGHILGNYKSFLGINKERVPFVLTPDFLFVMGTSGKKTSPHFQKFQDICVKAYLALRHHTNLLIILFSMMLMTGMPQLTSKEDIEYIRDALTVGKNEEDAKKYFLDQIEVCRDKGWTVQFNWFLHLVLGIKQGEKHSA

AURKA = AURKA (Homo sapiens (Human), UniProt O14965); conditions: literature; cited from earlier work
Chain of AURKA (O14965 whole entry, species assumed): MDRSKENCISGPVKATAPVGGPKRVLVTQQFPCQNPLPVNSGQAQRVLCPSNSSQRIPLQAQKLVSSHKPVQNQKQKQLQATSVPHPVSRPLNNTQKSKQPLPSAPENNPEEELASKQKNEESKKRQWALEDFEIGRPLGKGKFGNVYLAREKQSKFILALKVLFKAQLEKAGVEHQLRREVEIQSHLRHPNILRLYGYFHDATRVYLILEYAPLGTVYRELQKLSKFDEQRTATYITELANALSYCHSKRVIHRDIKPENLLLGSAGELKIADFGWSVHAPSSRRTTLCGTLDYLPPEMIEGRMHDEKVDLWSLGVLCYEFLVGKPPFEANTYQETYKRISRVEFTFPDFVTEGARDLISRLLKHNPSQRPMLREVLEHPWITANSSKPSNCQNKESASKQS

MST2 = MST2 (Homo sapiens (Human), UniProt Q13188); conditions: read-out: IC50 against MST2; literature; cited from earlier work
Chain of MST2 (Q13188 whole entry, species assumed): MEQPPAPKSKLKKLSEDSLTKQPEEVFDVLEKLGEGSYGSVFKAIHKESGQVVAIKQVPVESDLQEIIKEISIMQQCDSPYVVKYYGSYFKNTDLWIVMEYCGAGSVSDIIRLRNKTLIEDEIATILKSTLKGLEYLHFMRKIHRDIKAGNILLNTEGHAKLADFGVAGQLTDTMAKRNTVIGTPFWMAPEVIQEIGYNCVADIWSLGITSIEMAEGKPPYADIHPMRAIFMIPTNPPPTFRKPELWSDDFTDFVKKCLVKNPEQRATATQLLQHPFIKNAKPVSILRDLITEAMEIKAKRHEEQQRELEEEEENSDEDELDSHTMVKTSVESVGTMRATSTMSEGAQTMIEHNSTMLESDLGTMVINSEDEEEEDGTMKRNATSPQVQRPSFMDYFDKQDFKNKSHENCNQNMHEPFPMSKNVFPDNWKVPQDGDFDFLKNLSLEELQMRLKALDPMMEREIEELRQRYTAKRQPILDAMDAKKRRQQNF

T1 sequence (Q13043 whole entry): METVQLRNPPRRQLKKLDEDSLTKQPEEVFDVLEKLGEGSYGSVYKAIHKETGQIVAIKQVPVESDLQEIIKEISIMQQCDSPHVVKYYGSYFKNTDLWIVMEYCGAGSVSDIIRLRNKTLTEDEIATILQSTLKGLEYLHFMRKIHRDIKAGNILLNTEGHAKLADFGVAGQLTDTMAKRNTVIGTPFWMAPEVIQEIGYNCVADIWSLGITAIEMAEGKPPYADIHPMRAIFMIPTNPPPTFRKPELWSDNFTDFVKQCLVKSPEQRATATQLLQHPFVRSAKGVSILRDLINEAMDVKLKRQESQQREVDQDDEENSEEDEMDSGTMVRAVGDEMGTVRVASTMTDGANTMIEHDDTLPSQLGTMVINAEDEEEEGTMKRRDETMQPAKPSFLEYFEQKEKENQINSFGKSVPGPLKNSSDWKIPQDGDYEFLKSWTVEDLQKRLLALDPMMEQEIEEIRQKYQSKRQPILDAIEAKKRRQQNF

## CN1C(=O)c2sccc2N(C)c2nc(Nc3ccc(S(N)(=O)=O)cc3)ncc21 [XMU-MP-1]
MST1 [1]
  IC50: 0.121 µM
C57BL/6 mice; 1 mg/kg intraperitoneally after APAP 600 mg/kg ip
  survival of the mice: all escaped from death
C57BL/6 mice; after APAP 600 mg/kg ip, compound 1 po 1-4 mg/kg, XMU-MP-1 ip 1 mg/kg
  weight of mice: can gradually recover
MIN-6 cells
  number of cells: reduced to a certain extent
  toxicity to MIN6 cells: toxic to MIN6 cells to a certain extent
MST1 [2]
  IC50: 71 nM
MAP3K2
  inhibitory effect on MAP3K2: significant inhibitory effect
TAOK
  inhibitory effect on TAOK: significant inhibitory effect
PIK3CG
  inhibition of PIK3CG: inhibited
AURKA
  inhibition of AURKA: inhibited
MST2
  IC50: 38 nM
